Measurements from article PMC10888562 (International Journal of Molecular Sciences, 2024).
Several values for one entry are separate records, joined by “and”; a condition that tells them apart may be missing. Identical values can stand only once.

Experiments:
U87 glioblastoma = experiment: MTT cell viability assay (GI50), U87; format: cell-based, human; conditions: for SCI: GI50 (MCF10A)/GI50 (U87); for GI50: U87 glioblastoma, MTT
H460 lung = experiment: MTT cell viability assay (GI50), H460; format: cell-based, human; conditions: for SCI: GI50 (MCF10A)/GI50 (H460); for GI50: H460 lung, MTT
BE2-C neuroblastoma = experiment: MTT cell viability assay (GI50), BE2-C; format: cell-based, human; conditions: for SCI: GI50 (MCF10A)/GI50 (BE2-C); for GI50: BE2-C neuroblastoma, MTT
SJ-G2 glioblastoma = experiment: MTT cell viability assay (GI50), SJ-G2; format: cell-based, human; conditions: for SCI: GI50 (MCF10A)/GI50 (SJ-G2); for GI50: SJ-G2 glioblastoma, MTT
A2780 ovarian = experiment: MTT cell viability assay (GI50), A2780; format: cell-based, human; conditions: for SCI: GI50 (MCF10A)/GI50 (A2780); for GI50: A2780 ovarian, MTT
MCF-7 breast = experiment: MTT cell viability assay (GI50), MCF-7; format: cell-based, human; conditions: for SCI: GI50 (MCF10A)/GI50 (MCF-7); for GI50: MCF-7 breast, MTT
HT29 colon cells = experiment: DCFDA cellular ROS production assay; format: cell-based, human; conditions: GI50 drug concentration (TBHP 20 μM)
Experimental: All values are expressed as relative fluorescence units (RFU).
To evaluate the presence of ROS in treated cells, a DCFDA/H2DCFDA-cellular ROS Assay Kit (Abcam, Cambridge, MA, USA) was used, as previously described. A total of 25,000 cells/mL of HT29 cells in DMEM were seeded in 96-well plates. Cells were washed with 1X kit buffer, and then stained with 25 μM 2′,7′-dichlorofluorescein diacetate (DCFH-DA) and incubated for 45 min. DCFH-DA was then removed, and cells were then re-washed with 1X kit buffer, after which phenol red free media was added. Cells were then treated with a GI50 drug concentration for each complex. The plates were directly scanned to measure fluorescence (relative fluorescence units (RFU)) at the time points indicated the Glo-Max®-Multimode microplate reader (Promega Corporation, Alexandra, VIC, Australia) at an excitation/emission of 485/535 nm, which is directly correlated to the DCFH-DA that is deacetylated by cellular esterases and then oxidised by ROS to the fluorescent compound DCF. To generate the positive control (20 μM tert-butyl hydroperoxide (TBHP)), cells were washed with 1X kit buffer, and stained with DCFDA (25 μM) for 45 min; this was removed and TBHP was added in phenol red free media, and the resulting solution was scanned as described above.

[1] = system: histone deacetylase (HDAC); experiment: Fluorometric HDAC activity assay on extracts of treated HT29 cells; format: cell-based, human; conditions: HT29 colon cells treated 72 h at GI50 concentration; lower RFU = decline in HDAC activity; HT29 extract control 5154 ± 40
Experimental: All values are expressed as RFU.
To study the HDAC activity in HT29 treated cells, a Fluorometric HDAC Activity Assay Kit ab156064 (Abcam, Cambridge, MA, USA) was used and all sample preparations were made based on the manufacturer’s protocol. A total of 10^6 cells/mL of HT29 cells were seeded in DMEM with serum deprivation for 18 h to synchronise the cells. […] Cells were then washed with cold PBS and resuspended in lysis buffer (10 mM Tris HCl (pH 7.5), 10 mM NaCl, 15 mM MgCl2, 250 mM sucrose, 0.5% NP-40 and 0.1 mM EGTA) and lysed on ice for 20 min. Cells were centrifuged through 4 mL of sucrose cushion (30% sucrose, 10mM Tris HCl (pH 7.5), 10 mM NaCl and 3mM MgCl2) at 1300× g for 10 min at 4 °C. Supernatant was discarded and the pellet was washed and resuspended in extraction buffer (50 mM HEPES-KOH (pH 7.5), 420 mM NaCl, 0.5 mM EDTA 2Na, 0.1 mM EGTA and 10% glycerol) and then sonicated for 30 s. Nuclei were lysed for 30 min on ice and centrifuged at 20,000× g for 30 min. The supernatant was collected, and the samples were prepared for the fluorometric assay according to the manufacturer’s protocol (Histone Deacetylase (HDAC) Activity Assay Fluorometric Kit ab156064, Abcam). The changes in the relative fluorescence intensity (expressed as RFU) were recorded each minute over 60 min using the Glo-Max®-Multimode microplate reader (Promega Corporation, Alexandra, VIC, Australia) at an excitation/emission of 355/460 nm.

Du145 prostate = experiment: MTT cell viability assay (GI50), Du145; format: cell-based, human; conditions: for fold more potent than carboplatin / fold more potent than cisplatin / fold more potent than oxaliplatin: GI50 ratio; for GI50: MTT; for SCI: GI50 (MCF10A)/GI50 (Du145)
[2] = system: multiple human cell lines; experiment: MTT cell viability assay, all cell lines (mean/range of GI50); format: cell-based; conditions: for fold decrease of average GI50 relative to the platinum(IV) scaffold: average GI50 of scaffold vs 5B3A derivative, all cell lines; for GI50: average over all cell lines
[3] = Lipophilicity by analytical HPLC (log kw); format: physicochemical
Description: The order of complexes by increasing lipophilicity is P-5B3A < 5-5B3A < 56-5B3A (Table 2 and Figure S27). It can be deduced that increasing methylation on the heterocyclic ligand increased lipophilicity. This trend agrees with published data. The determined log kw values are consistent and within the range of the log kw values determined for similar complexes reported in the literature.
Lipophilicity measurements were completed via analytical HPLC, as previously reported.

[4] = Reduction with ascorbic acid (AsA) followed by 1H-NMR and 1D-195Pt-NMR; format: physicochemical; conditions: PBS, DMSO-d6, 37 °C; for Approximate Reduction Time Points T50%: time at which 50% of reduction occurs; for Approximate Reduction Time Points T100%: time at which 100% of reduction occurs
Experimental: The biological reductant selected for this study is AsA. Briefly, sequential ^1H-NMR experiments were performed for 1 h at 37 °C, proceeded by 1D-^195Pt-NMR at 400 and −2800 ppm (30 min per region). It is noteworthy that the purity of each complex was examined prior the reduction experiments ensuring that no traces of platinum(II) species were evident in the samples used. All complexes were dissolved in PBS and DMSO-d6, without the reductant. Preliminary 1D-^195Pt-NMR measurements were conducted at 37 °C at 400 and −2800 ppm. […] Upon treatment of the platinum(IV) complexes with AsA, there was considerable reduction observed in the ^1H-NMR and 1D-^195Pt-NMR spectra acquired (Figures S31–S36). Notable changes in chemical multiplicity were recorded in the ^1H-NMR reduction spectra of P-5B3A, 5-5B3A and 56-5B3A (Figures S31, S33 and S35), especially along the aromatic region. The estimated reduction time points for P-5B3A, 5-5B3A and 56-5B3A are also outlined in Table 3.
The reduction behaviour of P-5B3A, 5-5B3A and 56-5B3A was investigated using ^1H-NMR and 1D-^195Pt-NMR spectroscopy, using previously established methods.

[5] = system: non-tumour-derived MCF10A breast line; conditions: for GI50: MCF10A non-tumour-derived breast, MTT

Row | Compound | SCI (U87 glioblastoma) | SCI (H460 lung) | SCI (BE2-C neuroblastoma) | SCI (SJ-G2 glioblastoma) | SCI (A2780 ovarian) | SCI (MCF-7 breast) | ROS Production (HT29 colon cells; 24 h, control 60 ± 3) | ROS Production (HT29 colon cells; 48 h, control 63 ± 4) | ROS Production (HT29 colon cells; 72 h, control 85 ± 6) | HDAC Inhibition at 72 h [1] [RFU] | GI50 (U87 glioblastoma) [nM] | GI50 (H460 lung) [nM] | GI50 (Du145 prostate; Du145 prostate) [nM] | SCI (Du145 prostate) | GI50 (BE2-C neuroblastoma) [nM] | GI50 (SJ-G2 glioblastoma) [nM] | GI50 (A2780 ovarian) [nM] | GI50 (MCF-7 breast) [nM] | fold decrease of average GI50 relative to the platinum(IV) scaffold [2] [fold] | GI50 [2] [nM] | also measured
1 | N.N.[Cl][Pt][Cl] [Cisplatin, cis-diammineplatinum(II) dichloride] | 1.37 | 5.78 | 2.74 | 13.00 | 5.20 | 0.80 | 265 ± 19 RFU | 299 ± 22 RFU | 364 ± 18 RFU | 3698 ± 59 | – | – | – | – | – | – | – | – | – | – | –
2 | [Pt^IV(5,6-Me2phen)(SS-DACH)(5B3A)(OH)]^2+ [56-5B3A] | 0.04 | 0.42 | 0.02 | 0.03 | 0.18 | 0.05 | 274 RFU and 274 ± 9 RFU | 418 RFU and 418 ± 15 RFU | 474 ± 10 RFU | 2550 ± 57 | 88 ± 7 | 7.8 ± 2.2 | 1.2 ± 0.6 | 2.75 | 150 ± 24 | 110 ± 20 | 18 ± 6.1 | 68 ± 10 | 3.6 | 42 ± 7 | fold more potent than 56MESS (Du145 prostate; Du145 prostate): 0.3 fold; fold more potent than carboplatin (Du145 prostate; Du145 prostate): ≥ 12,500 fold; fold more potent than cisplatin (Du145 prostate; Du145 prostate): 1000 fold; fold more potent than oxaliplatin (Du145 prostate; Du145 prostate): at least 2400 fold; log kw Values [3]: 2.11; Approximate Reduction Time Points T50% [4]: 0 to 5 min; Approximate Reduction Time Points T100% [4]: 10 min; GI50 [5]: 3.3 ± 0.9 nM
3 | [Pt^IV(5-Mephen)(SS-DACH)(5B3A)(OH)]^2+ [5-5B3A] | 0.08 | 0.63 | 0.06 | 0.10 | 0.45 | 0.10 | 160 RFU and 160 ± 11 RFU | 230 RFU and 230 ± 9 RFU | 315 RFU and 315 ± 14 RFU | 2791 ± 72 | 240 ± 23 | 30 ± 3 | 10 ± 2 | 1.90 | 340 ± 40 | 200 ± 40 | 42 ± 4 | 200 ± 21 | 4 | 104 ± 12 | fold more potent than carboplatin (Du145 prostate; Du145 prostate): 1500 fold; fold more potent than cisplatin (Du145 prostate; Du145 prostate): 120 fold; fold more potent than oxaliplatin (Du145 prostate; Du145 prostate): 290 fold; fold lower average GI50 than 5MESS ([2]; average GI50, all cell lines): approximately 0.9 fold; log kw Values [3]: 1.91; Approximate Reduction Time Points T50% [4]: 5 to 10 min; Approximate Reduction Time Points T100% [4]: 30 min; GI50 [5]: 19 ± 1.5 nM
4 | [Pt^IV(phen)(SS-DACH)(5B3A)(OH)]^2+ [P-5B3A] | 0.15 | 0.65 | 0.02 | 0.22 | 0.60 | 0.05 | 156 RFU and 156 ± 16 RFU | 214 RFU and 214 ± 12 RFU | 246 ± 11 RFU | 3620 ± 35 | 1900 ± 150 | 430 ± 50 | 190 ± 23 | 1.47 | 13000 | 1300 ± 200 | 470 ± 18 | 5400 ± 2800 | ~1.6 | 2080 ± 703 | fold larger average GI50 than 5-5B3A ([2]; average GI50, all cell lines): 20 fold; fold larger average GI50 than 56-5B3A ([2]; average GI50, all cell lines): 50 fold; log kw Values [3]: 1.82; Approximate Reduction Time Points T50% [4]: 10 to 15 min; Approximate Reduction Time Points T100% [4]: 60 min; fold difference in cytotoxicity versus PHENSS [5]: 0.9 fold; GI50 [5]: 280 ± 39 nM
